Laboratory results: the supplement of paper PMC10307832

compound: CC(C)CCN1c2nc(Nc3cc(F)c(O)c(F)c3)ncc2N(C)C(=O)C1C [BI-D1870] + Cc1cc(Nc2cc(N3CCN(C)CC3)nc(Sc3ccc(NC(=O)C4CC4)cc3)n2)n[nH]1 [Tozasertib] (partner 0.1 µM); assay: relative viability (nuclei count vs DMSO), 5 days (fraction); higher = more cells survive; details: first compound 4 µM
Procedure, shortened: (§1)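 Each reported value is a median over duplicate plates. It expresses relative viability: treated-well nuclei count divided by vehicle-well nuclei count. Lung cancer cell lines in 1536-well plates were dosed by pin tool a day after seeding, alone with one drug or with a fixed anchor-drug dose plus five library-drug doses (not always all listed) in √10 steps, and nuclei were counted after 5 days.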

Cell Line	relative viability
HCC-44	0.404
NCI-H522	0.533
SW 900	0.284
NCI-H2009	0.321
NCI-H661	0.381
SK-LU-1	0.204
NCI-H2228	0.134
NCI-H2023	0.164

compound: CC(C)CCN1c2nc(Nc3cc(F)c(O)c(F)c3)ncc2N(C)C(=O)C1C [BI-D1870] + COc1cc2c(Oc3ccc(NC(=O)C4(C(=O)Nc5ccc(F)cc5)CC4)cc3F)ccnc2cc1OCCCN1CCOCC1 [Foretinib] (partner 0.25 µM); assay: as above; details: first compound 0.04 µM
Procedure, shortened: as §1

Cell Line	relative viability
NCI-H2342	1.04
NCI-H1623	0.913
NCI-H727	0.793
NCI-H1650	1.31
EBC-1	0.103
NCI-H1703	0.381
NCI-H1993	0.777
SW 1573	0.958
NCI-H838	1.12
LCLC-103H	0.842
NCI-H520	0.821
NCI-H2126	1.23
EMC-BAC-2	1.07
NCI-H2085	0.82
Calu-6	0.929
HCC-366	0.957

Cell Line	relative viability
NCI-H1666	1.1
NCI-H596	0.882
SK-MES-1	0.871
COR-L23	1.01
COR-L 105	1.29
IA-LM	1.24
ChaGo-K-1	1.01
A549	1.08
SW 900	0.855
NCI-H2009	1.31
NCI-H661	1.02
SK-LU-1	0.86
NCI-H1299	1.13
NCI-H2228	1.03
NCI-H2023	0.919
NCI-H1563	0.957

same assay, conditions: first compound 0.1265 µM

Cell Line	relative viability
NCI-H2342	1
NCI-H1623	0.843
NCI-H727	0.931
NCI-H1650	0.756
EBC-1	0.119
NCI-H1993	0.659
SW 1573	0.783
NCI-H838	1.01
LCLC-103H	0.662
NCI-H520	0.724
NCI-H2126	1.14
EMC-BAC-2	0.875
NCI-H2085	0.869
Calu-6	0.789
HCC-366	0.906
NCI-H1666	0.936

Cell Line	relative viability
NCI-H596	0.918
SK-MES-1	0.77
COR-L23	0.894
COR-L 105	1.12
IA-LM	1.07
ChaGo-K-1	0.85
A549	0.958
SW 900	0.949
NCI-H2009	1.09
NCI-H661	0.989
SK-LU-1	0.676
NCI-H1299	1.07
NCI-H2228	0.806
NCI-H2023	0.635
NCI-H1563	0.927

same assay, conditions: first compound 0.4 µM

Cell Line	relative viability
NCI-H2342	1.11
NCI-H1623	0.801
NCI-H727	0.883
NCI-H1650	1.08
EBC-1	0.105
NCI-H1703	0.295
NCI-H1993	0.715
SW 1573	0.853
NCI-H838	1.05
LCLC-103H	0.777
NCI-H520	0.741
NCI-H2126	1.22
EMC-BAC-2	0.918
NCI-H2085	0.832
Calu-6	0.87
HCC-366	0.932

Cell Line	relative viability
NCI-H1666	0.952
NCI-H596	0.889
SK-MES-1	0.706
COR-L23	0.938
COR-L 105	1.1
IA-LM	1.32
ChaGo-K-1	0.857
A549	1.01
SW 900	0.893
NCI-H2009	1.23
NCI-H661	1.04
SK-LU-1	0.739
NCI-H1299	1.08
NCI-H2228	0.941
NCI-H2023	0.823
NCI-H1563	0.939

same assay, conditions: first compound 1.265 µM

Cell Line	relative viability
NCI-H2342	1.18
NCI-H1623	0.903
NCI-H727	0.871
NCI-H1650	1.18
EBC-1	0.136
NCI-H1703	0.355
NCI-H1993	0.784
SW 1573	0.937
NCI-H838	1.16
LCLC-103H	0.866
NCI-H520	0.958
NCI-H2126	1.15
EMC-BAC-2	1.09
NCI-H2085	0.824
Calu-6	0.774
HCC-366	0.896
NCI-H1666	1.07
NCI-H596	0.849
SK-MES-1	0.868
COR-L23	1.01
COR-L 105	1.47
IA-LM	1.03
ChaGo-K-1	1.04
A549	0.963
SW 900	0.751
NCI-H2009	1.12
NCI-H661	1.03
SK-LU-1	0.798
NCI-H1299	1.08
